Experimental data published in US20040225019A1, “Methods of preventing or treating motion sickness” (priority 2003, published 2004).
“Also recorded” adds a separate entry of the source.

Columns and labels:
[1] = test system: motion sickness; assay: Off-vertical rotation chair motion sickness test; assay type: in vivo, human; settings: for Mean Time (chair time): ride 3 h after drug, placebo 7.2; for Mean Time (chair time) / Mean Motion Sickness Severity Score: n = 18; for Mean Motion Sickness Severity Score: end of chair ride, placebo 18.2
Source text: Motion sickness was simulated by rotation in a tilted chair, also known as off-vertical rotation (Knox, et al. (1994) Laryngoscope 104(8 Pt 1):935-9; Woodard, et al. (1993) Aviat. Space Environ. Med. 64(5):363-6; Mowrey and Clayson (1982) Lancet 1(8273):655-7; Graybiel and Miller (1970) Aero. Med. 41(4):407-10). Off-vertical rotation produces motion sickness symptoms in more than 90% of subjects tested and has a high test-retest reliability. No provocative head motions are required which minimizes subject fatigue and training. For each run, the chair was tilted to 15 degrees off vertical, and accelerated at 5 degrees/sec^2 to 17.5 revolutions per minute. […] The subject was restrained with a seat belt and shoulder harness. The subject's head was also secured to the headrest with a strap to prevent head movements. Opaque goggles were placed over the subject's eyes.
The degree of motion sickness was assessed in three different ways. For the first method, the subjects were instructed how to use a well-known ratio scaling method (Bock and Oman (1982) Aviat. Space Environ. Med. 53(8):773-7) and were given a familiarization run in the chair to experience the motion sickness symptoms. The subjects were instructed to rate the peak overall discomfort they experienced in the familiarization ride as a “10” and to remember this level. They were instructed to rate all other levels of discomfort relative to this level. For example, discomfort which was half as severe would be rated as a “5”. This method is similar other well-known methods (see, e.g., Stott, et al. (1989) Br. J. Clin. Pharma. 27(2):147-57).
The second method was symptom recording. Prior to the familiarization run the subjects were instructed about the different symptoms that might occur (drowsiness, epigastric awareness, and the like). The subjects were asked about these symptoms each minute during the rotation and logged on a scoring sheet (Miller and Graybiel (1970) Aero. Med. 41(4):407-10), which was a variant of the Pensacola Diagnostic Rating Scale. The symptoms were assigned points and from these points, five levels of severity were determined (frank sickness, severe malaise, moderate malaise A, moderate malaise B, slight malaise).
The third method used to assess motion sickness was to record the total number of minutes the subject rides in the chair before stopping (Woodard, et al. (1993) supra; Mowrey and Clayson (1982) supra).
The studies employed a double-blind, placebo controlled, crossover design. […] The placebo was a single lactose capsule. […] The medications were labeled only with the subject's name, identification number and sequence of administration (i.e., Run 1, Run 2, Run 3). […] Both the research team and subjects were unaware of the order of administration.
Prior to the ride, subjects received a briefing on the symptoms they might experience, how to report those symptoms and instructions on when to stop the test. After the familiarization ride the subjects were instructed to remember their peak overall discomfort as a “10” and to rate all future symptoms relative to that baseline.
The subjects rode in the chair once for each treatment (low dose, high dose, and placebo) with at least one week between rides. A one week interval between rides is sufficient to prevent habituation to the rotating stimulus (Kohl (1987) Aviat. Space Environ. Med. 58(2):125-31; Stott, et al (1989) supra).
Test medications were taken two hours after finishing breakfast. […] On the study day, the subjects came to the lab, performed the cognitive testing battery and were observed taking the test medication. The time of drug ingestion was documented and the subjects returned three hours after taking the medication to complete the cognitive testing battery and ride in the chair. Prior to entering the chair, subjects received a standardized test briefing. Every minute during the testing, subjects were quizzed for motion sickness symptoms and asked to rate their own symptoms on a ratio scale. […]

[2] = Cognitive assessment battery before and after drug and chair ride; assay type: in vivo, human; settings: for Mean Reaction Time: n = 15
Source text: Test medications were taken two hours after finishing breakfast. […] On the study day, the subjects came to the lab, performed the cognitive testing battery and were observed taking the test medication. The time of drug ingestion was documented and the subjects returned three hours after taking the medication to complete the cognitive testing battery and ride in the chair. Prior to entering the chair, subjects received a standardized test briefing. Every minute during the testing, subjects were quizzed for motion sickness symptoms and asked to rate their own symptoms on a ratio scale. Testing continued until either 20 minutes elapsed, the subject requested testing stop, or severe nausea or vomiting was experienced (i.e., the subject reached a subjective 10 on their scale). Blood pressure, respiratory rate and pulse were measured before and after the chair ride using a Critikon DINAMAP® 1846-SX device.
A standard cognitive assessment battery (Dinges, et al. (1997) Sleep 20(4):267-7; Neri, et al. (1995) Aviat. Space Environ. Med 66(4):313-9; Richardson, et al. (1996) Sleep 19(9):718-26) used in studies of sleep deprivation (Jewett, et al. (1999) Sleep 22(2):171-9) was used which included both objective and subjective measures of performance and wakefulness. The overall battery takes 20 minutes to administer and has been used successfully on the Neurolab space shuttle mission to assess how sleep loss affected crewmembers.
The cognitive tests were performed three times for each chair ride. The first test served as a baseline, the second test was administered at the peak of drug effect and the last test was after the chair ride. In this design, the results of the second test reflect changes due to drug effect, while the results from the third test reflect a combination of drug effect and motion sickness effects.

[3] = Questionnaire about side effects after chair ride

SMILES: CN(C)CCC(c1ccc(Cl)cc1)c1ccccn1 (racemic) [chlorpheniramine]
- Mean Time (chair time) ([1]; High Dose 12 mg chlorpheniramine capsule): 11.7 min
- Mean Motion Sickness Severity Score ([1]; High Dose 12 mg): 12.4
- Motion sickness severity score at end of chair ride (significance) ([1]; High dose 12 mg versus placebo (p=0.0004) and low dose (p=0.01)): significantly less
- Increase of mean chair time versus placebo ([1]; High dose 12 mg, 7.2 to 11.7 minutes): 63%
- Effect on chair time versus placebo (significance) ([1]; High dose 12 mg, p=0.001): significantly increased chair time
- Mean Time (chair time) ([1]; Low Dose 4 mg chlorpheniramine capsule): 10.2 min
- Mean Motion Sickness Severity Score ([1]; Low Dose 4 mg): 16.4
- Subjects who increased chair time to the maximum (20 minutes) ([1]; of 18 subjects, rides stopped at 20 minutes): Three
- Performance in objective tests of addition, tracking and memory ([2]; 4 mg and 12 mg doses): does not affect performance; also recorded: not significantly affected
- Mean Reaction Time ([2]; High Dose 12 mg, PostDrug): 281.5 ms
- Mean Reaction Time ([2]; High Dose 12 mg, PostRide): 298.4 ms
- Mean Reaction Time ([2]; High Dose 12 mg, PreDrug (baseline before drug)): 265.1 ms
- Karolinska sleepiness scores ([2]; High dose 12 mg, after chair rides, p<0.0001): higher sleepiness scores
- Reaction time (significance) ([2]; High dose 12 mg, after the chair rides, p=0.0002): significantly increased
- Scores on the alert-sleepy mood scale ([2]; High dose 12 mg, p<0.0001): significantly changed toward the sleepy portion of the scale
- Scores on the clearheaded-groggy mood scale ([2]; High dose 12 mg, p<0.0001): significantly changed toward the groggy portion of the scale
- Mean Reaction Time ([2]; Low Dose 4 mg, PostDrug): 286.1 ms
- Mean Reaction Time ([2]; Low Dose 4 mg, PostRide): 295.2 ms
- Mean Reaction Time ([2]; Low Dose 4 mg, PreDrug (baseline before drug)): 271.2 ms
- Most commonly reported toxicities ([3]; after chair rides, 18 subjects): drowsiness and dry mouth
- Tendency to report a side effect with drug versus placebo ([3]; chi-square analysis): did not reach statistical significance
